The values that follow come from patent US20260146264A1, “METHODS FOR REPROGRAMMING AND GENE EDITING CELLS” (Factor Bioscience Inc., priority 2023, published 2026).

“Also recorded” adds a separate entry of the source.

One data set concerns pJet promoter. Briefly: Reactivation of silenced pJet promoter (GFP expression) during iPSC to iMSC differentiation. The data set is classed as cell-based, human. The settings on record: 10 μM, 24 hours on day 23 of differentiation, JeT-GFP cells. An excerpt: • 1. Transfect hiPSCs with a chromatin context-sensitive gene editing endonuclease according to some embodiments of the present disclosure, mRNA and single stranded DNA repair templates encoding GFP sequence under JeT (“pJet”) and Ef1a promoters. • 2. Perform gDNA extraction and AAVS1 surveyor PCR to confirm ssDNA repair template integration at AAVS1 locus • 3. Perform single cell sorting to obtain homogeneous cell line started from a single cell • 4. Using Stemdiff™ Mesenchymal Progenitor kit, differentiate iPS cell lines inserted with pJet and Ef1a GFP sequence in their genomes into iMSCs. • 5. Verify robust iMSC differentiation using surface marker expression at the completion of differentiation.
FIG. 16A and FIG. 16B show the tracking of GFP expression under a pJet promoter during iPSC to iMSC differentiation. […] GFP was expressed from day 18 to 30 but was completely silenced on day 33.

Data set [1] has as its system COL7A1_e73 gene-editing protein pair US22 (US2L/US2R, wild-type FokI domains) (synthetic construct). Briefly: cell_activity. The conditions noted are these: T7E1 assay, primary human fibroblasts; 9.4% in iPSCs (p667).
For data set [2], the system named is COL7A1_e73 gene-editing protein pair USN3 (US2L/US2R D467A) D467A in FokI domain of right protein (D84A of SEQ 80; mutant FokI domain is SEQ 83) (synthetic construct). The data set can be described thus: cell_activity. The settings on record: T7E1 assay, primary human fibroblasts; nickase pair.
Data set [3] has as its system COL7A1_e73 gene-editing protein pair USN2 (US2L/US2R D450N) D450N in FokI domain of right protein (D67N of SEQ 80; mutant FokI domain is SEQ 82) (synthetic construct). The data set can be described thus: cell_activity. The settings on record: T7E1 assay, primary human fibroblasts; 0.4% in iPSCs; nickase pair, 42.9% relative insertion of dsDNA donor in fibroblasts.
The test system of data set [4] is COL7A1_e73 gene-editing protein pair USN1 (US2L/US2R D450A) D450A in FokI domain of right protein (D67A of SEQ 80; mutant FokI domain is SEQ 81) (synthetic construct). Briefly: cell_activity. The conditions noted are these: T7E1 assay, primary human fibroblasts; nickase pair, 58.7% relative insertion of 300 bp dsDNA donor vs 72.3% for US22.

Protocol for Control iMSCs: The cytotoxicity of small-molecule IDO1 inhibitors was assessed by flow cytometry after a 48 hour incubation with Control iMSCs. Viability is shown relative to PBS controls.

On to `NS(=O)(=O)NCCNc1nonc1C(=NO)Nc1ccc(F)c(Br)c1` [Epacadostat], for which the “cytotoxicity (viability relative to PBS controls)” value in the data set with Control iMSCs is given as “no significant difference relative to PBS”.

In the case of `C[C@@H](NC(=O)c1ccc(F)cc1)c1ccc2c(c1)CCN2C(=O)C1CCOCC1` [IDO1-IN-5], the “cytotoxicity (viability relative to PBS controls)” value in the data set with Control iMSCs is reported as “mild cytotoxicity”.

Turning to `CC(/C=C/C(=O)NO)=C\[C@@H](C)C(=O)c1ccc(N(C)C)cc1` [Trichostatin A], the “GFP expression post TSA treatment” value is “temporary increase in GFP expression” with pJet promoter; “noticeable increase of GFP expression; also recorded: successfully demethylated and reactivated the pJet promoter” with pJet promoter (listed as TSA).

As for COL7A1 exon 73 target site, the activity in data set [1] turned out to be 61.9 % NHEJ/MMEJ; in data set [2], 11.1 % NHEJ/MMEJ; in data set [3], 3.1 % NHEJ/MMEJ; in data set [4], 4.4 % NHEJ/MMEJ.
